The test system of one assay is male C57 BL/6 mice. The assay is described as follows: animal or person. The assay is classed as in vivo.
Assay [1] addresses human κ-opioid receptor (OPRK1) (Homo sapiens, UniProt P41145). The assay is classed as cell-based. The settings on record: read-out: KOR EC50 ± SEM.
Assay [2] has as its system human μ-opioid receptor β-arrestin-2. The assay is classed as cell-based.

Sequence of human κ-opioid receptor (OPRK1) (P41145 whole entry): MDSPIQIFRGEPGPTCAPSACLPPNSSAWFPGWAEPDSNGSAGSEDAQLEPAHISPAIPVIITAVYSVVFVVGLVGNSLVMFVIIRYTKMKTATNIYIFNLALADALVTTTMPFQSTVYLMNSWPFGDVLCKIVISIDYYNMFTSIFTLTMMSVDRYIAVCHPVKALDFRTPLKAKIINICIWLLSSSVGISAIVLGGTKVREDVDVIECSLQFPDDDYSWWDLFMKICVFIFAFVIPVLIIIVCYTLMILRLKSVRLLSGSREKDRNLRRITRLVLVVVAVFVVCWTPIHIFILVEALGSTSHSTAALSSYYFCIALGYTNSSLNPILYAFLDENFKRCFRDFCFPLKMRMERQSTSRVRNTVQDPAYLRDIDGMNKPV

On to `COC(=O)[C@@H]1C=C(OC(=O)c2ccccc2)C(=O)[C@H]2[C@@]1(C)CC[C@H]1C(=O)O[C@H](c3ccoc3)C[C@]21C` [Compound 1, kurkinorin], for which, in the assay with male C57 BL/6 mice (mouse, in vivo), the “antinociceptive ED50, day 1” value is listed as 5 ± 0.51 mg/kg and the “antinociceptive ED50, day 9” value was 7.9 ± 0.11 mg/kg. In the assay with male C57 BL/6 mice (mouse, in vivo, sc), the “antinociceptive tolerance on day 9 compared to day 1” value is recorded as “reduced tolerance compared to morphine”. Also, in assay [1], the EC50 is over 10 µM.
On to `C[C@@H](NC(=O)[C@@H](N)Cc1ccc(O)cc1)C(=O)NCC(=O)N(C)[C@@H](Cc1ccccc1)C(=O)NCCO` [DAMGO], for which, in assay [2], the “Bias Factor” value is recorded as 1 and the “β-arrestin recruitment % Efficacy” value is on record as 42 ± 5 (97) %.
Turning to `CN1CC[C@]23c4c5ccc(O)c4O[C@H]2[C@@H](O)C=C[C@H]3[C@H]1C5` [Morphine], in the assay on male C57 BL/6 mice (Mus musculus, 24 h, read-out: antinociceptive ED50, day 1), the 50% effective dose (ED50) is 6.43 ± 0.27 mg/kg. Besides, in the assay with male C57 BL/6 mice (mouse, in vivo, sc), the “antinociceptive tolerance on day 9 compared to day 1” value is recorded as “significant induction of tolerance” and the onset of tolerance was determined as 5 days.

These data come from article PMC7359744 (ACS chemical neuroscience, 2020).
